These results are taken from patent US11098063B2, “Diazabicyclic substituted imidazopyrimidines and their use for the treatment of breathing disorders” (Bayer Aktiengesellschaft, priority 2017, dated 2021).

Holding throughout (assay type): cell-based
The target of experiment [1] is T1, human TASK-3 (Homo sapiens (Human), UniProt Q9NPC2). The experiment can be described thus: Inhibition of recombinant TASK-3 in stably transfected CHO cells (voltage-sensitive dye, KCl depolarization). The note with it: depolarization by 40 mM potassium chloride. The essentials:
(§1)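 Stably transfected CHO cells loaded with a voltage-sensitive membrane-potential dye were depolarized with 40 mM KCl in the presence of compound. IC50 is the concentration blocking half of the KCl-induced depolarization.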

Experiment [2] concerns the target T2, human TASK-1 (Homo sapiens (Human), UniProt O14649). The experiment can be described thus: Inhibition of recombinant TASK-1 in stably transfected CHO cells (voltage-sensitive dye, KCl depolarization). The note with it: depolarization by 40 mM potassium chloride. The essentials: as §1
Experiment [3] concerns the target T1, human TASK-3. The experiment is described as follows: Two-electrode voltage clamp analysis of human TASK-3 channel in Xenopus laevis oocytes. The note with it: human TASK-3 expressed in Xenopus laevis oocytes, room temperature. How it is done:
(§2) B-1. In Vitro Electrophysiological Analysis of the Human TASK-1 and TASK-3 Channels Via Two-Electrode Voltage Clamp Technique in Xenopus laevis Oocytes
(§3) Xenopus laevis oocytes were selected as described elsewhere by way of illustration [Decher et al., FEBS Lett. 492, 84-89 (2001)]. Subsequently, the oocytes were injected with 0.5-5 ng of a cRNA solution coding for TASK-1 or TASK-3. For the electrophysiological analysis of the channel proteins expressed in the oocytes, the two-electrode voltage clamp technique [Stühmer, Methods Enzymol. 207, 319-339 (1992)] was used. The measurements were conducted as described [Decher et al., FEBS Lett. 492, 84-89 (2001)] at room temperature (21-22° C.) using a Turbo TEC 10CD amplifier (NPI), recorded at 2 kHz and filtered with 0.4 kHz. Substance administration was performed using a gravitation-driven perfusion system. Here, the oocyte is located in a measuring chamber and exposed to the solution stream of 10 ml/min. The level in the measuring chamber is monitored and regulated by sucking off the solution using a peristaltic pump.
In general terms: Two-electrode voltage clamp is typically applied to oocytes expressing channels or transporters.

The target of experiment [4] is T2, human TASK-1. The experiment is described as follows: Two-electrode voltage clamp analysis of human TASK-1 channel in Xenopus laevis oocytes. The conditions noted are these: human TASK-1 expressed in Xenopus laevis oocytes, room temperature. The method, then:
as §2, §3

T2 sequence (O14649 whole entry): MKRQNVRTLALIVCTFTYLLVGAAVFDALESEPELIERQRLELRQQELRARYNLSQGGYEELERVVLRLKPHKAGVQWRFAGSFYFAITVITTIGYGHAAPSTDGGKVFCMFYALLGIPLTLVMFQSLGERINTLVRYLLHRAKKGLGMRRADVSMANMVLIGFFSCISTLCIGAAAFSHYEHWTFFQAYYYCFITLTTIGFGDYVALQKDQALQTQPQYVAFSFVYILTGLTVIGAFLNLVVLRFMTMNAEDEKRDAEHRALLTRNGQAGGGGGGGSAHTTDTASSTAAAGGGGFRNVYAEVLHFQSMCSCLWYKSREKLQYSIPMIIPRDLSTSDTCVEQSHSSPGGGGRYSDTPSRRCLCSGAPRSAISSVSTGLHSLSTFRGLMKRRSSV
T1 sequence (Q9NPC2 whole entry): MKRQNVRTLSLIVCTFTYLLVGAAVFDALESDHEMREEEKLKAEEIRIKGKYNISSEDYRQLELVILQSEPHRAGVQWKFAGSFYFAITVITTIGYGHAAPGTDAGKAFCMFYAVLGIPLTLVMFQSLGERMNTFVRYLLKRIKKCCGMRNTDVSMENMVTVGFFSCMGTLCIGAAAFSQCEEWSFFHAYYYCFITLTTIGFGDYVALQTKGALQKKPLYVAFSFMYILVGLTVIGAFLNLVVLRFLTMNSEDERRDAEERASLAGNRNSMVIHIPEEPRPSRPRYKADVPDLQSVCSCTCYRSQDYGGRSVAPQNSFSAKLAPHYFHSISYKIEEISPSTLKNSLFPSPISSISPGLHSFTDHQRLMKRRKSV

A word on the IC50: it is the concentration that inhibits the measured activity by half. On to `COc1ccc(Cl)c(C(=O)N2CC3CCC2CN3Cc2c(-c3ccc(C(C)C)cc3)nc3ncccn23)n1` (single isomer, unassigned) [Example 26, (3-Chloro-6-methoxypyridin-2-yl)(5-{[2-(4-isopropylphenyl)imidazo[1,2-a]pyrimidin-3-yl]methyl}-2,5-diazabicyclo[2.2.2]oct-2-yl)methanone], for which the IC50 on human TASK-3 [1] stood at 16 nM; on human TASK-1 [2], 1400 nM; on human TASK-3 [3], 140 ± 34.6 nM; against human TASK-1 [4], 31.2 ± 5.8 nM.

For `CC(C)c1ccc(-c2nc3ncccn3c2CN2CC3CCC2CN3C(=O)c2ncoc2C2CC2)cc1` (single isomer, unassigned) [Example 27, (5-Cyclopropyl-1,3-oxazol-4-yl)(5-{[2-(4-isopropylphenyl)imidazo[1,2-a]pyrimidin-3-yl]methyl}-2,5-diazabicyclo[2.2.2]oct-2-yl)methanone], the IC50 at human TASK-3 [1] stood at 10 nM; on human TASK-1 [2] it was 1200 nM; on human TASK-3 [3], 367 ± 67.6 nM; on human TASK-1 [4], 17.9 ± 2.2 nM.

Take `CC(C)c1ccc(-c2nc3ncccn3c2CN2CC3COCC(C2)N3C(=O)c2cccc(OC(F)F)n2)cc1` [Example 19, [6-(Difluoromethoxy)pyridin-2-yl](7-{[2-(4-isopropylphenyl)imidazo[1,2-a]pyrimidin-3-yl]methyl}-3-oxa-7,9-diazabicyclo[3.3.1]non-9-yl)methanone]: the IC50 at human TASK-3 [1] worked out at 59 nM; on human TASK-1 [2], 22000 nM; against human TASK-3 [3] it was 774 ± 67.1 nM; at human TASK-1 [4] it was 239 ± 2.7 nM.

Take `COc1ccc(F)c(C(=O)N2CC3CCC2CN3Cc2c(-c3ccc(Cl)cc3)nc3ncccn23)n1` (centres unmarked) [Example 41]: the IC50 is 100 nM at human TASK-3 [1], 1500 nM on human TASK-1 [2], 71.8 ± 15.5 nM at human TASK-3 [3] and 44.4 ± 4.4 nM against human TASK-1 [4].

Regarding `O=C(c1cccc(OC(F)F)n1)N1C2CCC1CN(Cc1c(-c3ccc(C4CC4)cc3)nc3ncccn13)C2` [Example 138, (3-{[2-(4-cyclopropylphenyl)imidazo[1,2-a]pyrimidin-3-yl]methyl}-3,8-diazabicyclo[3.2.1]octan-8-yl)[6-(difluoromethoxy)pyridin-2-yl]methanone], the half-maximal inhibitory concentration (IC50) at human TASK-3 [1] worked out at 290 nM; at human TASK-1 [2] it was 3200 nM.

Take `O=C(c1ncoc1C1CC1)N1C2CCC1CN(Cc1c(-c3ccc(C4CC4)cc3)nc3ncccn13)C2` [Example 139, (5-cyclopropyl-1,3-oxazol-4-yl)(3-{[2-(4-cyclopropylphenyl)imidazo[1,2-a]pyrimidin-3-yl]methyl}-3,8-diazabicyclo[3.2.1]octan-8-yl)methanone]: the IC50 on human TASK-3 [1] is 470 nM; at human TASK-1 [2] it was 4500 nM.
